Reference: patent publication US20200254041A1, “RAPID ONSET AND EXTENDED ACTION PLANT-BASED AND SYNTHETIC CANNABINOID FORMULATIONS” (RECEPTOR HOLDINGS, INC., priority 2017, published 2020)
Converted amounts (≈) assume the structure as drawn.

How the values were obtained:
[1] = cited from earlier work
[2] = Cannabis/SNAC oral rat pharmacokinetic (PK) study; type: in vivo; conditions: rats; for AUC compared to the cannabis alone group: 25 mg/kg cannabis extract; for AUC0-Tlast increase over the cannabis alone group / Cmax increase over the cannabis alone group: 500 mg/kg SNAC and 50 mg/kg cannabis extract vs 25 mg/kg cannabis alone
Experimental: Summary of cannabis/SNAC oral rat pharmacokinetic (PK) study.
Methods. Animals were dosed on Day 1 and a series of blood samples were collected over a period of 4 hours post dose for pharmacokinetic evaluation. Animals were euthanized following collection of their last blood sample.

[3] = cited from earlier work; remark: listed apart in the source
study participants [4] = test: Onset and duration of action of orally administered cannabis/SNAC formulation (200 mg SNAC) vs cannabis-only control; participant-reported euphoria/dysphoria; type: in vivo, human; conditions: 200 mg SNAC in oral cannabis formulation
Experimental: This study was designed to assess the utility of SNAC in enabling a rapid-acting oral form of cannabis.
Selection of Participants. Six study participants were recruited to ingest cannabis formulations and record the onset, duration, and intensity of cannabis-induced euphoria and/or dysphoria.
(§1) Formulations. The selected cannabis concentrate is commercially available and was provided to participants in an ethanol solution. The concentrate contains 8 mg THC per dose. It was selected because it contains a high percentage of THC, which provides a noticeable effect on user-reported “euphoria”.
(§2) Methods. For the Control experiment, each participant mixed the cannabis concentrate with 15 ml (one tablespoon) of aqueous ethanol, and immediately swallowed the mixture.
(§3) For both the Control experiment and the Test experiment, each participant recorded the time of dose administration, the time of onset of euphoria and/or dysphoria, and the observed level of euphoria and/or dysphoria in fifteen minute intervals for five hours following administration of the cannabis dose. Euphoria and dysphoria were reported using a scale value, in a range from 1-10.

study participants [5] = test: Onset and duration of action of orally administered cannabis/SNAC formulation at a low SNAC dose (100 mg); participant-reported euphoria; type: in vivo, human; conditions: 100 mg SNAC in oral cannabis formulation
Experimental: This study was designed to assess the utility of SNAC in enabling a rapid-acting oral form of cannabis at a low dose.
Selection of Participants. Three study participants were recruited to ingest cannabis formulations and record the onset, duration, and intensity of cannabis-induced euphoria and/or dysphoria.
as §1, §2, §3

[6] = 25 mg/kg cannabis extract with SNAC at either 250 or 500 mg/kg

Oc1ccc(C=Cc2cc(O)cc(O)c2)cc1 [Resveratrol]
aqueous solubility [1]: 30 µg/mL (≈ 131 µM)

C=CC(C)(O)CCC=C(C)C (stereo not shown) [Linalool]
water solubility (in words) [1]: low water solubility

CCCCCc1cc(O)c2c(c1)OC(C)(C)[C@@H]1CCC(C)=C[C@@H]21 [THC, delta-9-tetrahydrocannabinol]
Cmax increase over cannabis alone [2, 6]: 1.4 fold | AUC compared to the cannabis alone group ([2]; 250 mg/kg SNAC group): 1.1 fold | AUC compared to the cannabis alone group ([2]; 500 mg/kg SNAC group): lower | AUC compared to the cannabis alone group ([2]; both SNAC groups (250 and 500 mg/kg)): comparable | AUC0-Tlast increase over the cannabis alone group [2]: 6.3 fold | Cmax increase over the cannabis alone group [2]: 6.9 fold | duration of action / effects ([3]; after oral administration): 4 to 6 h | onset of action ([3]; after oral administration): up to 1.5 hours | peak effect at ([3]; after oral administration): 2 to 4 h | absorbed ([3]; after single oral doses): 90-95% | administered dose that reaches the systemic circulation ([3]; oral, first pass hepatic metabolism and poor aqueous solubility): 4-20%

C[C@@H]1O[C@@H](O[C@H]2[C@H](Oc3cc(O)c4c(c3)O[C@H](c3ccc(O)cc3)CC4=O)O[C@H](CO)[C@@H](O)[C@@H]2O)[C@H](O)[C@H](O)[C@H]1O [Naringin]
water solubility (in words) [1]: low water solubility

C=CCc1ccc(O)c(OC)c1 [Eugenol]
water solubility (in words) [1]: low water solubility

COC(=O)[C@H]1[C@H]2C[C@@H]3c4[nH]c5cc(OC)ccc5c4CCN3C[C@H]2C[C@@H](OC(=O)c2cc(OC)c(OC)c(OC)c2)[C@@H]1OC [Reserpine]
water solubility (in words) [1]: low water solubility

C=C(C)[C@@H]1CCC(C)=C[C@H]1c1c(O)cc(CCCCC)cc1O [CBD, cannabidiol]
Cmax increase over cannabis alone ([2]; 25 mg/kg cannabis extract with SNAC 250 mg/kg): 2.9 fold | Cmax increase over cannabis alone ([2]; 25 mg/kg cannabis extract with SNAC 500 mg/kg): 2.8 fold | Cmax increase over cannabis alone [2, 6]: 2.8 fold | AUC0-Tlast increase over the cannabis alone group [2]: 22.1 fold | Cmax increase over the cannabis alone group [2]: 14.2 fold | water solubility (in words) [1]: very low or no solubility in water

O=C([O-])CCCCCCCNC(=O)c1ccccc1O.[Na+] [SNAC, sodium N-[8-(2-hydroxybenzoyl)amino] caprylate]
effect of the absorption enhancer on the duration of action of cannabis (study participants [4]): no effect on the duration of action of cannabis | effect of the absorption enhancer on the duration of action of cannabis (study participants [5]): no effect on the duration of action of cannabis

COc1cc(CNC(=O)CCCC/C=C/C(C)C)ccc1O [Capsaicin]
water solubility (in words) [1]: low water solubility

Cc1cc(O)c2c(=O)c3c(O)cc(O)c4c5c(O)cc(O)c6c(=O)c7c(O)cc(C)c8c1c2c(c34)c(c78)c65 [Hypericin]
water solubility (in words) [1]: insoluble in water

C[C@@H]1O[C@@H](Oc2c(-c3ccc(O)c(O)c3)oc3cc(O)cc(O)c3c2=O)[C@H](O)[C@H](O)[C@H]1O [Quercitrin]
water solubility (in words) [1]: low water solubility

COc1cc(/C=C/C(=O)CC(=O)/C=C/c2ccc(O)c(OC)c2)ccc1O [Curcumin]
aqueous solubility [1]: < 100 µg/mL

COc1ccc([C@@H]2CC(=O)c3c(O)cc(O[C@@H]4O[C@H](CO[C@@H]5O[C@@H](C)[C@H](O)[C@@H](O)[C@H]5O)[C@@H](O)[C@H](O)[C@H]4O)cc3O2)cc1O [Hesperidin]
water solubility (in words) [1]: low water solubility

C[C@@H]1O[C@@H](OC[C@H]2O[C@@H](Oc3c(-c4ccc(O)c(O)c4)oc4cc(O)cc(O)c4c3=O)[C@H](O)[C@@H](O)[C@@H]2O)[C@H](O)[C@H](O)[C@H]1O [Rutin]
water solubility (in words) [1]: low water solubility

CC[C@]1(O)C[C@@H]2CN(CCc3c([nH]c4ccccc34)[C@@](C(=O)OC)(c3cc4c(cc3OC)N(C)[C@H]3[C@@](O)(C(=O)OC)[C@H](OC(C)=O)[C@]5(CC)C=CCN6CC[C@]43[C@@H]65)C2)C1 [Vinblastine]
water solubility (in words) [1]: low water solubility
